# Assay results published in patent US20250129067A1 (Progentos Therapeutics, Inc., priority 2021, published 2025).
# Columns and labels:
# PDGFRα = PDGFRα (Homo sapiens (Human), UniProt P16234); assay: PDGFRα kinase enzyme assay (Promega PDGFRα Kinase Enzyme System, ADP-Glo); type: biochemical; settings: 11-point dose response, 10,000 nM to 0.169 nM; 150 uM ATP; BLQ = below limit of quantitation; read-out: IC50 Values on PDGFRα Kinase Inhibition, IC50
# Protocol: The PDGFRα enzyme assays were conducted per the manufacturer's directions (Promega PDGFRα Kinase Enzyme System and ADP Glo Assay Cat #V8011). […] 20 ng of purified PDGFRα protein was added to the test article. […] ADP-Glo was added to halt the kinase reaction and deplete the remaining ATP. Kinase detection reagent, containing luciferase and luciferin, was used to convert the ADP signal into luminescence. Luminescence was measured using a Molecular Devices Spectramax ID5 and compared to a standard curve to determine kinase activity. IC50s were calculated using Prism 9, Graphpad software.
# [1] = tested on: Oligodendrocyte progenitor cells (OPCs); assay: In vitro OPC differentiation assay, GPR17 expression (immunocytochemistry); settings: 72 hours, fold change over vehicle; for GPR17 Fold Induction (Over Vehicle; 3 μM): 3 μM (10× concentration, final 0.3 μM)
# Protocol: To assess the effects of the PDGFRα inhibitors on OPC differentiation, primary OPCs were cultured and exposed to compounds. The number of newly generated oligodendrocytes was assessed by monitoring GPR17 expression. GPR17 is preferentially expressed in actively differentiating oligodendrocytes, allowing them to be distinguished from precursors and more differentiated oligodendrocytes.
# Cortices from postnatal day (P) 1-3 rats were dissected and collected into ice cold Hank's Balanced Salt Solution (HBSS). […] Briefly, the cortical cell suspension was centrifuged and washed with buffer (0.5% BSA in PBS) and labeled with Anti-A2B^5 MicroBeads (10 μL beads per 1×10^7 cells) for 15 minutes at 4° C. Following the incubation, cells were washed once with BSA buffer to remove unlabeled beads. A2B^5 positive cells were eluted on the column using the AutoMACS® (Miltenyi, as per manufacturer's protocol using “Possel-s” program). Eluted cells were further washed twice with OPC growth media. Cell counts were performed using Countess III cell counter (ThermoFisher; AMQAX2000) and cells were plated.
# The plates were allowed to sit at room temperature for 15 minutes to ensure proper dispersion of cells in a well. The plates were then transferred to the incubator (37° C.; 5% CO2).
# Cells were then incubated for 72 hours at 37° C., 5% CO2 before immunostaining for GPR17 marker expression.
# Following 72 hours in culture, cells were fixed with 4% paraformaldehyde for 15 minutes and then washed three times in Dulbecco's phosphate buffered saline (DPBS). Prior to immunostaining, cells were treated with a blocking solution (10% normal goat serum containing 1% BSA and 0.1% Triton® X-100 in DPBS) for 15 minutes at room temperature. Primary antibody (anti-GPR17 at 1:2000; Origene TA811615) was applied to cells overnight at 4° C. in incubation solution containing 1% normal goat serum, 1% BSA, and 0.1% Triton X-100 in DPBS. […] The secondary antibody was applied in incubation solution for 2 hours at room temperature, protected from light.
# The number of differentiated GPR17+ cells was normalized to the total nuclei count and percent differentiated GPR17+ cells were reported. Statistical analysis was done using one-way ANOVA with multiple comparisons and post-hoc Tukey test in GraphPad Prism (GraphPad Software).
# PDGFRα, sequence (P16234 24-1089): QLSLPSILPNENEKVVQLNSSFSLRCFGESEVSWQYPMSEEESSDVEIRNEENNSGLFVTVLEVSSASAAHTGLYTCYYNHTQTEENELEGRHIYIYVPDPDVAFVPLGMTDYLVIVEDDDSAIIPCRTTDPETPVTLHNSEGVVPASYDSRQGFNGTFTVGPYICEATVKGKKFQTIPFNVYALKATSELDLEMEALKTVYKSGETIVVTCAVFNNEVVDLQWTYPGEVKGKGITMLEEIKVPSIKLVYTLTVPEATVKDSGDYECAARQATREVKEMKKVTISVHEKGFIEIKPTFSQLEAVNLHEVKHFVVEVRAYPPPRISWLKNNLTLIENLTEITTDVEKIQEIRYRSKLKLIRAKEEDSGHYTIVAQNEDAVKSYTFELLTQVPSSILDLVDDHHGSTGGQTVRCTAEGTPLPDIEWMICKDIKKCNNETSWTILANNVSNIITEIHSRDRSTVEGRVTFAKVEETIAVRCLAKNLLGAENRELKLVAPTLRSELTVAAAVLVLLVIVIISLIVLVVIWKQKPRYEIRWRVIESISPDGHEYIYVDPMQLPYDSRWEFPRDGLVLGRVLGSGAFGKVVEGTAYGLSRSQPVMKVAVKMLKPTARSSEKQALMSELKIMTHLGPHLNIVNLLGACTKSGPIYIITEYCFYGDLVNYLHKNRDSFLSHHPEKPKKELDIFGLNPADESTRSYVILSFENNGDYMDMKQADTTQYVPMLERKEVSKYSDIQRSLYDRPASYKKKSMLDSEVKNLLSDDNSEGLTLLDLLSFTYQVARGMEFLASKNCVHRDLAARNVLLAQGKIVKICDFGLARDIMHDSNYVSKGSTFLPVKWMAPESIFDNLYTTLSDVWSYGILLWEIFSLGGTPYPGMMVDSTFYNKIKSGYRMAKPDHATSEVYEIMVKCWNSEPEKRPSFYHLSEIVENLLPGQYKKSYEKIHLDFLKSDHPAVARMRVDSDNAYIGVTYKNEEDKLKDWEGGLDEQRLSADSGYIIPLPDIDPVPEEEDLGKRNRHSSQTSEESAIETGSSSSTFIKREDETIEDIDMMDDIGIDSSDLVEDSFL
IC50 (PDGFRα),GPR17 Fold Induction (Over Vehicle; 3 μM) [1],"GPR17 Fold Induction (Over Vehicle; 5 μM) ([1]; 5 μM (10× concentration, final 0.5 μM))",SMILES
0.0653 µM,12.24,,"Cn1cc(-c2ccc3c(N4CCN(C(=O)OCc5csc(Cl)c5)CC4)cnn3c2)cn1 [Compound 197, (5-chlorothiophen-3-yl)methyl 4-(6-(1-methyl-1H-pyrazol-4-yl)pyrazolo[1,5-a]pyridin-3-yl)piperazine-1-carboxylate]"
> 10 µM,2.61,,"Cn1cc(-c2ccc3c(N4CCN(c5ncc(C(F)(F)c6ccc(F)cc6)cn5)CC4)cnn3c2)cn1 [Compound 262, 3-(4-(5-(difluoro (4-fluorophenyl)methyl)pyrimidin-2-yl)piperazin-1-yl)-6-(1-methyl-1H-pyrazol-4-yl)pyrazolo[1,5-a]pyridine]"
0.268 µM,9.02,,"COCCn1cnc(-c2ccc3c(N4CCN(C(=O)OC(C)(C)C)CC4)cnn3c2)c1 [Compound 227, tert-butyl 4-(6-(1-(2-methoxyethyl)-1H-imidazol-4-yl)pyrazolo[1,5-a]pyridin-3-yl)piperazine-1-carboxylate]"
0.0691 µM,11.72,,"Cn1cc(-c2ccc3c(N4CCN(c5ncc([C@@H](O)[C@@H]6CCCOC6)cn5)CC4)cnn3c2)cn1 [Compound 193, (S)-(2-(4-(6-(1-methyl-1H-pyrazol-4-yl)pyrazolo[1,5-a]pyridin-3-yl)piperazin-1-yl)pyrimidin-5-yl)((R)-tetrahydro-2H-pyran-3-yl)methanol]"
> 10 µM,1.07,,"Cn1cc(-c2ccc3c(N4CCN(c5ncc(C(=O)c6ccc(F)cc6)cn5)CC4)cnn3c2)cn1 [Compound 25, (4-fluorophenyl)(2-{4-[6-(1-methyl-1H-pyrazol-4-yl)pyrazolo[1,5-a]pyridin-3-yl]piperazin-1-yl}pyrimidin-5-yl)methanone]"
> 10 µM,5.33,,"Cn1cc(-c2ccc3c(N4CCN(c5ncc(Cc6cocn6)cn5)CC4)cnn3c2)cn1 [Compound 171, 4-((2-(4-(6-(1-methyl-1H-pyrazol-4-yl)pyrazolo[1,5-a]pyridin-3-yl)piperazin-1-yl)pyrimidin-5-yl)methyl)oxazole]"
> 10 µM,0.54,,"Cn1cc(-c2ccn3c(N4CCN(c5ncc(Cc6ccccc6)cn5)CC4)nnc3c2)cn1 [Compound 24, 3-[4-(5-benzylpyrimidin-2-yl)piperazin-1-yl]-7-(1-methyl-1H-pyrazol-4-yl)[1,2,4]triazolo[4,3-a]pyridine]"
0.674 µM,1.79,,"CC(C)N(C)C(=O)N1CCN(c2cnn3cc(-c4cnn(C)c4)ccc23)CC1 [Compound 252, N-isopropyl-N-methyl-4-[6-(1-methyl-1H-pyrazol-4-yl)pyrazolo[1,5-a]pyridin-3-yl]piperazine-1-carboxamide]"
6.99 µM,13.16,,"Cn1cc(-c2ccc3c(N4CCN(c5ncc(Cc6nccs6)cn5)CC4)cnn3c2)cn1 [Compound 182, 2-((2-(4-(6-(1-methyl-1H-pyrazol-4-yl)pyrazolo[1,5-a]pyridin-3-yl)piperazin-1-yl)pyrimidin-5-yl)methyl) thiazole]"
0.506 µM,6.61,,"Cc1c(-c2ccc3c(N4CCN(C(=O)OC(C)(C)C)CC4)cnn3c2)cnn1C [Compound 221, tert-butyl 4-(6-(1,5-dimethyl-1H-pyrazol-4-yl)pyrazolo[1,5-a]pyridin-3-yl)piperazine-1-carboxylate]"
> 10 µM,2.02,,"CC(C)(C)OC(=O)N1CCN(c2cnn3cc(-c4ccccc4F)ccc23)CC1 [Compound 209, tert-butyl-4-(6-(2-fluorophenyl)pyrazolo[1,5-a]pyridin-3-yl)piperazine-1-carboxylate]"
> 10 µM,0.68,,"CC(C)(C)OC(=O)N1CCN(c2cnn3cc(C4CC4)ccc23)CC1 [Compound 213, tert-butyl 4-{6-cyclopropylpyrazolo[1,5-a]pyridin-3-yl}piperazine-1-carboxylate]"
> 10 µM,0.46,,"COCCn1cc(-c2ccn3c(N4CCCN(C(=O)OC(C)(C)C)CC4)cnc3n2)cn1 [Compound 105, tert-butyl 4-(7-(1-(2-methoxyethyl)-1H-pyrazol-4-yl)imidazo[1,2-a]pyrimidin-3-yl)-1,4-diazepane-1-carboxylate]"
> 10 µM,2.00,,"CC(C)(C)OC(=O)N1CCN(c2cnn3cc(C4CCCC4)ccc23)CC1 [Compound 214, tert-butyl 4-(6-cyclopentylpyrazolo[1,5-a]pyridin-3-yl)piperazine-1-carboxylate]"
3.57 µM,6.36,,"Cn1cc(-c2ccc3c(N4CCN(c5ncc(Oc6ccccc6)cn5)CC4)cnn3c2)cn1 [Compound 166, 6-(1-methyl-1H-pyrazol-4-yl)-3-(4-(5-phenoxypyrimidin-2-yl)piperazin-1-yl)pyrazolo[1,5-a]pyridine]"
0.0586 µM,5.02,,"Cn1cc(-c2ccc3c(N4CCN(c5nnc(Cc6ccccc6)o5)CC4)cnn3c2)cn1 [Compound 155, 2-benzyl-5-(4-(6-(1-methyl-1H-pyrazol-4-yl)pyrazolo[1,5-a]pyridin-3-yl)piperazin-1-yl)-1,3,4-oxadiazole]"
7.62 µM,6.20,,"Cn1cc(-c2ccc3c(N4CCN(c5ncc(C(O)C(F)(F)F)cn5)CC4)cnn3c2)cn1 (stereo not drawn) [Compound 285, 2,2,2-trifluoro-1-(2-{4-[6-(1-methyl-1H-pyrazol-4-yl)pyrazolo[1,5-a]pyridin-3-yl]piperazin-1-yl}pyrimidin-5-yl)ethanol]"
0.303 µM,11.42,,"Cn1cc(-c2ccc3c(N4CCN(C(=O)OCc5ccccc5C#N)CC4)cnn3c2)cn1 [Compound 281, 2-cyanobenzyl 4-(6-(1-methyl-1H-pyrazol-4-yl)pyrazolo[1,5-a]pyridin-3-yl)piperazine-1-carboxylate]"
0.195 µM,8.67,,"Cn1cc(-c2ccc3c(N4CCN(c5ncc(C(O)C6CCCCO6)cn5)CC4)cnn3c2)cn1 (stereo not drawn) [Compound 194, (2-(4-(6-(1-methyl-1H-pyrazol-4-yl)pyrazolo[1,5-a]pyridin-3-yl)piperazin-1-yl)pyrimidin-5-yl)(tetrahydro-2H-pyran-2-yl)methanol]"
> 10 µM,3.19,,"Cn1cc(-c2ccn3c(N4CCCN(c5ncc(Cc6ccccc6)cn5)CC4)cnc3n2)cn1 [Compound 122, 3-(4-(5-benzylpyrimidin-2-yl)-1,4-diazepan-1-yl)-7-(1-methyl-1H-pyrazol-4-yl)imidazo[1,2-a]pyrimidine]"
7.19 µM,4.33,,"Cn1cc(-c2ccc3c(N4CCN(c5ncc(CCc6ccccc6)cn5)CC4)cnn3c2)cn1 [Compound 152, 6-(1-methyl-1H-pyrazol-4-yl)-3-(4-(5-phenethylpyrimidin-2-yl)piperazin-1-yl)pyrazolo[1,5-a]pyridine]"
0.031 µM,14.76,,"Cn1cc(-c2ccc3c(N4CCN(c5ncc([C@H](O)[C@@H]6CCCOC6)cn5)CC4)cnn3c2)cn1 [Compound 192, (R)-(2-(4-(6-(1-methyl-1H-pyrazol-4-yl)pyrazolo[1,5-a]pyridin-3-yl)piperazin-1-yl)pyrimidin-5-yl)((R)-tetrahydro-2H-pyran-3-yl)methanol]"
> 10 µM,0.91,,CN(CCN(C)c1cnc2nc(-c3cccnc3)ccn12)C(=O)OC(C)(C)C [Compound 112]
4.83 µM,2.24,,"CC(C)(C)OC(=O)N1CCN(c2cnn3cc(-c4ccc(F)cc4)ccc23)CC1 [Compound 207, tert-butyl 4-(6-(4-fluorophenyl)pyrazolo[1,5-a]pyridin-3-yl)piperazine-1-carboxylate]"
0.287 µM,23.57,,"Cn1cc(-c2ccc3c(N4CCN(c5ncc(Cn6ccc7ccccc76)cn5)CC4)cnn3c2)cn1 [Compound 191, 3-(4-(5-((1H-indol-1-yl)methyl)pyrimidin-2-yl)piperazin-1-yl)-6-(1-methyl-1H-pyrazol-4-yl)pyrazolo[1,5-a]pyridine]"
> 10 µM,1.09,,"CN(CCNc1ncc(Cc2ccccc2)cn1)c1cnn2cc(-c3cnn(C)c3)ccc12 [Compound 125, N^1-(5-benzylpyrimidin-2-yl)-N^2-methyl-N^2-(6-(1-methyl-1H-pyrazol-4-yl)pyrazolo[1,5-a]pyridin-3-yl)ethane-1,2-diamine]"
> 10 µM,2.69,,"COc1ccc2c(N3CCN(c4ncc(Cc5ccccc5)cn4)CC3)cnn2c1 [Compound 259, 3-[4-(5-benzylpyrimidin-2-yl)piperazin-1-yl]-6-methoxypyrazolo-[1,5-a]pyridine]"
> 10 µM,6.13,3.46,"Cn1cc(-c2cn3ncc(N4CCN(c5ncc(Cc6ccccc6)cn5)CC4)c3cn2)cn1 [Compound 22, 3-[4-(5-Benzylpyrimidin-2-yl)piperazin-1-yl]-6-(1-methyl-1H-pyrazol-4-yl)pyrazolo[1,5-a]pyrazine]"
